Test results from patent US20060263368A1, “Targeted chimeric molecules for cancer therapy” (Research Development Foundation, priority 2005, published 2006).

What was measured:
A375-M Cells = experiment: Combination studies of GrB/scFvMEL with chemotherapeutic agents; details: for antitumor activity on co-administration with GrB/scFvMEL: 72 hours
Experimental: Cells in exponential growth phase were plated into 96-well plates. After 24 hr, the cells were treated with drug-containing medium. At the end of the indicated incubation period, growth inhibition was assessed by crystal violet staining. In order to determine the effects of sequencing, cells were treated with different two sequences.
I.C.25 dose of either GrB/scFvMEL or chemotherapeutic agents have been used in combination studies.

[1] = target: gp240 antigen (high-molecular-weight glycoprotein gp240 on human melanoma cells) (human) (UniProt Q6UVK1); experiment: flow cytometry on TXM-1 cells (very low gp240) stained with ZME-018 IgG2a and APC goat anti-mouse, against an isotype control
Sequence of gp240 antigen (high-molecular-weight glycoprotein gp240 on human melanoma cells) (human) (Q6UVK1 30-2322): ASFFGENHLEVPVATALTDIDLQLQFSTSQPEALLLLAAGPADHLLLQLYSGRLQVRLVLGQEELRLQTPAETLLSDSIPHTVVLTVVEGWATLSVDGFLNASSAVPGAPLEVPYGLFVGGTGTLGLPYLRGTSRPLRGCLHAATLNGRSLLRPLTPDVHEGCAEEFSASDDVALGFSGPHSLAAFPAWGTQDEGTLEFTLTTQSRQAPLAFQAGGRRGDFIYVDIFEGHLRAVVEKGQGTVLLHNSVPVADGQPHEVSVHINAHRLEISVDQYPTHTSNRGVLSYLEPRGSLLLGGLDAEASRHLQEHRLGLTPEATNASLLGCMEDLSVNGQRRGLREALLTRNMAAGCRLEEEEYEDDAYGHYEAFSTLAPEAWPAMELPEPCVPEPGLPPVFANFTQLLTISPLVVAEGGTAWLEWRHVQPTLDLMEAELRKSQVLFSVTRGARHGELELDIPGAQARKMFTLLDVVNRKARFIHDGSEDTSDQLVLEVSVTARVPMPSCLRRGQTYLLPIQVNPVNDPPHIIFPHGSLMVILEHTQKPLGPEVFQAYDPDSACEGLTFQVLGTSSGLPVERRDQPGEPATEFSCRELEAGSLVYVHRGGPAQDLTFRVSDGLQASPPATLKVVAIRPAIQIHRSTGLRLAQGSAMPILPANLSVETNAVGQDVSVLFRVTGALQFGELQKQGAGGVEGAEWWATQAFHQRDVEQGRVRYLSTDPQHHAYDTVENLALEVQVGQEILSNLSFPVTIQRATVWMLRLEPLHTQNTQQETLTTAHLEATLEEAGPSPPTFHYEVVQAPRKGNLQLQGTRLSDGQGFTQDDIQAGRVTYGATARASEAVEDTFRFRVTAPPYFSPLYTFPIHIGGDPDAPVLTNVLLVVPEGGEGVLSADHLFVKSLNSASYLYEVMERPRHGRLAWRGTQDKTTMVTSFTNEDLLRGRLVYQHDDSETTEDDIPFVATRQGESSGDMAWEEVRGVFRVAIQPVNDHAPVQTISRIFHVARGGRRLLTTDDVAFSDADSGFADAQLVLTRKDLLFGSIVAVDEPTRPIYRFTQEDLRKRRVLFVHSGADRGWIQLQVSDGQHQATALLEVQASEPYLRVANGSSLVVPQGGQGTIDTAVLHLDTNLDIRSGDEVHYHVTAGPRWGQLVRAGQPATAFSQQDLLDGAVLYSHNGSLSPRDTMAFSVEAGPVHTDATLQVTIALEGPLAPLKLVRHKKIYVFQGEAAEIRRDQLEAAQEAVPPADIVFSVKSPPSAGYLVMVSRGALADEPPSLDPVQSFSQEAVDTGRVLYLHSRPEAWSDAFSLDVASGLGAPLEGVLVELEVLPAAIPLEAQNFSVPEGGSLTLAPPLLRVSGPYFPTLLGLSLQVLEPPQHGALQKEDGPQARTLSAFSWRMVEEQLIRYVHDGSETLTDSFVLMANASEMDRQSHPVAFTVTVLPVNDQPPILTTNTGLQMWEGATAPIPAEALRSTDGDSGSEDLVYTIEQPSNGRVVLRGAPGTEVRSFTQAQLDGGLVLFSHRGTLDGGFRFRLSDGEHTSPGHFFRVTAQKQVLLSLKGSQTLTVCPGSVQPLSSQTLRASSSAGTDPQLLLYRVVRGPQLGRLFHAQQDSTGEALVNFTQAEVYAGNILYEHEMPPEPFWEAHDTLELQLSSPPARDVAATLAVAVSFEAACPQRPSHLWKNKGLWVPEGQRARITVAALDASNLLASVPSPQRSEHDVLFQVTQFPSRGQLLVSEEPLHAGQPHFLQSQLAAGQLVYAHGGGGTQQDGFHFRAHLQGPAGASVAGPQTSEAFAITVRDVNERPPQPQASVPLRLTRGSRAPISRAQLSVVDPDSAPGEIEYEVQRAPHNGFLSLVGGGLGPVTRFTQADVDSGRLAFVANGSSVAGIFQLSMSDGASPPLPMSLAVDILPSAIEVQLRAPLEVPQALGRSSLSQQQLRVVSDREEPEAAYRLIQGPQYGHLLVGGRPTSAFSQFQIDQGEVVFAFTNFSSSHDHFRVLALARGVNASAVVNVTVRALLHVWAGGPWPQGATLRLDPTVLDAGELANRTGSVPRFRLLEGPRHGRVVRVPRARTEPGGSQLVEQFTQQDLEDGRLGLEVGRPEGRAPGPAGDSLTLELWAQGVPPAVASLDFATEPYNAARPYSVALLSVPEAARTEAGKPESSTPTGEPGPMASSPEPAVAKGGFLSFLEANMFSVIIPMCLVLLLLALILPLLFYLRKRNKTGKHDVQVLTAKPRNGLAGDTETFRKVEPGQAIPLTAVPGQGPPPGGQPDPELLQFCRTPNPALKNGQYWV

[2] = target: gp240 antigen (high-molecular-weight glycoprotein gp240 on human melanoma cells) (human) (UniProt Q6UVK1); experiment: flow cytometry on TXM-18L cells stained with ZME-018 IgG2a and APC goat anti-mouse, against an isotype control
[3] = target: gp240 antigen (high-molecular-weight glycoprotein gp240 on human melanoma cells) (human) (UniProt Q6UVK1); experiment: flow cytometry on A375-M cells stained with ZME-018 IgG2a and APC goat anti-mouse, against an isotype control
[4] = target: gp240 antigen (high-molecular-weight glycoprotein gp240 on human melanoma cells) (human) (UniProt Q6UVK1); experiment: flow cytometry on MEL-526 cells stained with ZME-018 IgG2a and APC goat anti-mouse, against an isotype control
Capan-2 = experiment: In vitro cytotoxicity and combination study, crystal violet; type: cell-based, human; details: 72 hr of exposure
From the text: (§1) If CI near to 1 indicates additive effect (ADD), CI>1 indicates antagonism (ANT), CI<1 indicates synergism (SYN).

L3.6pl = experiment: as above; type: cell-based, human; details: 72 hr of exposure
From the text: as §1

Capan-1 = experiment: as above; type: cell-based, human; details: 72 hr of exposure
From the text: as §1

AsPc-1 = experiment: as above; type: cell-based, human; details: 72 hr of exposure
From the text: as §1

L3.6pl cells = experiment: Western blot of signal transduction effects; type: cell-based, human; set-up: key to Caspase-8 cleavage / Caspase-3 cleavage / PARP cleavage / Akt / p-Akt / Bcl-2: NE represents no effect; details: IC25 doses
Experimental: Cell lysates ([…]) were fractionated by 8-15% SDS-PAGE and transferred on Immobilon-P nitrocellulose membranes (Schleicher & Schuell Inc., Keene, N.H.). Membranes were blocked for 2 hours in Tris-buffered saline (TBS) containing 3% bovine serum albumin. Monoclonal anti-HER-2/neu Ab (Oncogene Research Products, San Diego, Calif.), rabbit polyclonal anti-HER-1 Ab, rabbit polyclonal anti-TNFR-1 Ab, rabbit polyclonal anti-TNFR-2 Ab, rabbit polyclonal anti-phospho Akt Ab, rabbit polyclonal anti-Akt, and goat anti-β-actin Ab were used for immunoblotting. Goat anti-mouse/goat anti-rabbit or swain anti-goat antibodies conjugated with horseradish peroxidase (Bio-Rad Laboratories, Hercules, Calif.) were used to visualize immunoreactive proteins at a 1:4000 dilution using ECL detection reagent (Amersham Pharmacia Biotech Inc., Piscataway, N.J.).
HER-2/neu over-expression results in activation of different downstream pathways such as the Akt kinase pathway, which leads to cell proliferation and cell survival. […] The activation of Akt kinase was then assessed by Western blot analysis using antibodies to Akt and to phospho-Akt. […]
To determine whether caspase-8 and caspase-3 were activated in L3.6pl cells during 5-FU+scFv23/TNF-induced cell death, the cleavage of caspase-8, caspase-3, and its substrate poly (ADP)-ribose polymerase (PARP) was investigated.

[5] = system: AsPc-1, Capan-1, Capan-2, and L3.6pl; experiment: cells; details: Homo sapiens, Pancreatic cancer cell
Experimental: (§4) To examine the potential mediation of the synergistic effect of combination treatments by activation of caspase-3 cells were pretreated with or without 100 μM caspase-3 inhibitor (Ac-DEVD-CHO) for 3 hr and then treated with their individual IC25 concentrations. After incubation for an additional 72 hr, remaining adherent cells were stained by adding 50 μl of crystal violet solution (0.5% w/v in 20% MeOH/H2O). Dye-stained cells were solubilized by addition of 100 μl of Sorenson's buffer [100 mM sodium citrate (pH 4.2) in 50% ethanol], and absorbance was measured at 630 nm using an ELISA plate reader (Bio-Tek Instruments, Inc., Winooski, Vt.).

[6] = system: AsPc-1, Capan-1, Capan-2, and L3.6pl; details: pancreatic cancer cell lines
Experimental: as §4

parental A375 cells = experiment: Cytotoxicity on parental and doxorubicin-resistant cells; type: cell-based; details: Homo sapiens, A-375; 72 hours
Experimental: (§2) To examine the cytotoxicity of GrB/scFvMEL or MEL/sFv/rGel, melanoma cells were plated on 96-well plates at a density of 4×10^3 cells per well and allowed to adhere for 24 hr at 37° C. in 5% CO2. After 24 hr, the medium was replaced with medium that contained various concentrations of fusion proteins. […] The percent of control refers to the percentage of cells in the drug-treated wells compared to that of control (untreated) wells.
(§3) Expression of the gp240 antigen was assessed by ELISA using ZME-018 antibody specifically recognizing gp240 antigen.

[7] = system: A375 doxorubicin-resistant (A375DR); experiment: as above; type: cell-based; details: Homo sapiens, A-375; 72 hours
Experimental: as §2, §3

[8] = target: gp240 antigen (high-molecular-weight glycoprotein gp240 on human melanoma cells) (human) (UniProt Q6UVK1); experiment: cell-based or functional assay
[9] = system: HER-2-overexpressing SKBR-3/H cells; experiment: Western blot, DNA fragmentation, TUNEL: signal transduction effects; type: cell-based, human; set-up: key to Akt / Caspase-8 cleavage / Caspase-3 cleavage / PARP cleavage / DNA fragmentation / IκB-α / TRADD / TRAF-2: NE represents no effect; details: 200 nM
Experimental: Apoptosis was detected by DNA fragmentation and TUNEL assay. […] After 24 hr and 48 hr, cells were washed with PBS, resuspended in a DNA extraction buffer containing 5 mM Tris-HCl, pH 8, 50 mM EDTA, 10 μg/ml RNAse, and 0.25% SDS and then incubated for 1 hr at 37° C. To remove protein, resuspended cell lysates were treated with 100 μg/ml proteinase K for 3 hr at 50° C. DNA was extracted using phenol and chloroform followed by ethanol precipitation. The genomic DNA was resuspended in Tris-EDTA (pH 8) and was fractionated by electrophoresis on a 1% agarose gel containing ethidium bromide.
The cells were washed with PBS, permeabilized (0.1% Triton X-100, 0.1% sodium citrate), and then fixed in 4% paraformaldehyde. Fixed cells were stained with in situ cell death detection kit (Roche). Cells undergoing apoptosis were identified by fluorescence microscopy.
After treatment, cells were washed twice with phosphate buffered saline (PBS) and lysed on ice for 20 min in 0.3 ml of lysis buffer (10 mM Tris-HCl, pH 8, 60 mM KCl, 1 mM EDTA, 1 mM DTT, 0.2% NP-40). Cell lysates (50 μg) were fractionated by 8-15% SDS-PAGE and electrophoretically transferred to Immobilon-P nitrocellulose membranes (Schleicher & Schuell Inc., Keene, N.H.). Membranes were blocked 2 hrs in Tris-buffered saline (TBS) containing 3% bovine serum albumin and then probed with various antibodies (monoclonal anti-HER-2/neu Ab, rabbit polyclonal anti-TNFR1 Ab, rabbit polyclonal anti-TNFR2 Ab, rabbit polyclonal anti-caspase-8 Ab, monoclonal anti-caspase-3 Ab, monoclonal anti-PARP Ab, rabbit polyclonal anti-TRADD Ab, rabbit polyclonal anti-TRAF2 Ab, rabbit polyclonal anti-IκB-α Ab, rabbit polyclonal anti-phospho Akt Ab, and rabbit polyclonal anti-Akt Ab). Goat anti-mouse/goat anti-rabbit or swain anti-goat antibodies conjugated with horseradish peroxidase (Bio-Rad Laboratories, Hercules, Calif.) were used to visualize immunoreactive proteins at a 1:4000 dilution using ECL detection reagent (Amersham Pharmacia Biotech Inc., Piscataway, N.J.).

[10] = Seq. III: pretreated with GrB/scFvMEL for 6 h, then agent for 72 h
[11] = Seq. IV: agent for 72 h without GrB/scFvMEL pretreatment

Molecule | antitumor activity on co-administration with GrB/scFvMEL (A375-M Cells) | % cytotoxicity (A375-M Cells; [10]) | % cytotoxicity (A375-M Cells; [11]) | IC50 (Capan-2; Homo sapiens, Capan-2) | IC50 (L3.6pl; Homo sapiens, L3.6pl) | IC50 (Capan-1; Homo sapiens, CAPAN-1) | IC50 (AsPc-1; Homo sapiens, ASPC1) | IC50 [5] | also measured
Nc1ccn([C@@H]2O[C@H](CO)[C@@H](O)[C@@H]2O)c(=O)n1 [Ara C, cytarabine] | additive | 68.70 ± 0.950% | 62.10 ± 1.054% |  |  |  |  |  | 
monoclonal antibody ZME-018 IgG2a |  |  |  |  |  |  |  |  | Gp240 Antigen % positive [1]: 4.6%; Gp240 Antigen % positive [2]: 40.9%; Gp240 Antigen % positive [3]: 98.9%; Gp240 Antigen % positive [4]: 97.8%
O=c1[nH]cc(F)c(=O)[nH]1 [5-Fluorouracil, 5-fluorouracil] | additive | 44.43 ± 2.118% | 21.90 ± 0.794% | 300000 nM | 1000 nM | 6000 nM | 7500 nM | 1000 to 300000 nM | Akt (L3.6pl cells): NE; Bcl-2 (L3.6pl cells): NE; inhibition of Bcl-2 expression levels (L3.6pl cells): no impact; p-Akt (L3.6pl cells): NE; Caspase-3 cleavage (L3.6pl cells; 48 hr): NE; Caspase-8 cleavage (L3.6pl cells; 48 hr): NE; PARP cleavage (L3.6pl cells; 48 hr): NE
CC[C@]1(O)C[C@H]2CN(CCc3c([nH]c4ccccc34)[C@@](C(=O)OC)(c3cc4c(cc3OC)N(C=O)[C@H]3[C@@](O)(C(=O)OC)[C@H](OC(C)=O)[C@]5(CC)C=CCN6CC[C@]43[C@@H]65)C2)C1 [VCR, vincristine] | synergistic |  |  |  |  |  |  |  | 
Nc1ccn([C@@H]2O[C@H](CO)[C@@H](O)C2(F)F)c(=O)n1 [Gemcitabine] |  |  |  | 150 nM | 6 nM | 20 nM | 200 nM | 6 to 700 nM | cytotoxic effect of agent combined with scFv23/TNF [6]: antagonistic cytotoxic effects in 3/4 cell lines
COc1cccc2c1C(=O)c1c(O)c3c(c(O)c1C2=O)C[C@@](O)(C(=O)CO)C[C@@H]3O[C@H]1C[C@H](N)[C@H](O)[C@H](C)O1 [Doxorubicin] | synergistic | 33.73 ± 1.590% | 30.33 ± 1.093% | 500 nM | 30 nM | 60 nM | 320 nM | 6 to 700 nM | IC50 (parental A375 cells): 0.5 nM; IC50 [7]: 200 nM
GrB/scFvMEL fusion construct (from UniProt P10144 21-247) |  |  |  |  |  |  |  |  | I.C.50, 72-h cytotoxicity (crystal violet), A375-M cells [8]: 32.1 nM; I.C.50, 72-h cytotoxicity (crystal violet), MEL-526 cells [8]: 50 nM; I.C.50, 72-h cytotoxicity (crystal violet), TXM-1 cells (very low-level gp240 expression) [8]: > 1 µM; I.C.50, 72-h cytotoxicity (crystal violet), TXM-13 cells [8]: 200 nM; I.C.50, 72-h cytotoxicity (crystal violet), TXM-18L cells [8]: 158 nM
COc1cc([C@@H]2c3cc4c(cc3[C@@H](O[C@@H]3O[C@@H]5CO[C@@H](C)O[C@H]5[C@H](O)[C@H]3O)[C@H]3COC(=O)[C@H]23)OCO4)cc(OC)c1O [Etoposide] | additive | 59.80 ± 1.986% | 51.27 ± 1.102% | 40000 nM | 2000 nM | 2000 nM | 28000 nM | 1000 to 300000 nM | 
N.N.[Cl][Pt][Cl] [Cisplatin] | synergistic |  |  |  |  |  |  |  | IC50 (Capan-2): 50000 nM; IC50 (L3.6pl): 3600 nM; IC50 (Capan-1): 4500 nM; IC50 (AsPc-1): 14000 nM; cytotoxic effect of agent combined with scFv23/TNF [6]: antagonistic cytotoxic effects in 3/4 cell lines
scFv23: single chain antibody recognizing the cell surface domain of HER-2/neu (protein) scFv: DVQLTQSPAILSASPGEKVTMTCRATPSVSYMHWYQQKPGSSPKPWIYTTSNLASGVPARFSGGGSGTSYSLTVSRVEAEDAATYYCQQWSRSPPTFGGGSKLEIKGSTSGSGKSSEGKGVQLQESGPEVVKPGGSMKISCKTSGYSFTGHTMNWVKQSHGKNLEWIGLINPYNGDTNYNQKFKGKATFTVDKSSSTAYMELLSLTSEDSAVYYCARRVTDWYFDVWGAGTTVTVSS |  |  |  |  |  |  |  |  | Akt [9]: NE; Caspase-3 cleavage [9]: NE; Caspase-8 cleavage [9]: NE; DNA fragmentation [9]: NE; IκB-α [9]: NE*; PARP cleavage [9]: NE; TRADD [9]: NE; TRAF-2 [9]: NE; p-Akt [9]: ↑
